Test results: US12577529B2, “Methods for producing neural cells” (QUIVER HOLDINGS INC., priority 2021, dated 2026)

Legend:
[1] = test system: NGN2 neurons (human iPS cell-derived excitatory neurons); experiment: Optopatch excitability assay in NGN2 neurons; assay type: cell-based
Description: To characterize the intrinsic excitability activity of human iPS cell-derived excitatory neurons with the Optopatch platform the two iPS cell lines, “11a” and “20b”, from Example 1 were used. These two iPS cell lines were derived from two neurologically healthy male subjects. The 11a and 20b iPS cells are converted into excitatory neurons using a transcriptional programming approach whereby the pro-neuronal transcription factor NEUROGENIN2 (NGN2) is overexpressed using doxycycline responsive lentiviral constructs as described in Example 1. This process drives the rapid conversion of iPS cells into neurons that resemble cortical excitatory neurons.
The resulting neurons are cryopreserved and subsequently thawed.
The thawed cells are co-cultured with primary rodent glia to facilitate neuronal electrophysiological maturation. To enable Optopatch measurements, the cells are transduced with lentiviral constructs expressing Optopatch components driven by the neuronal excitatory promoter CAMK2A and signals are recorded from the cells 2 weeks later. At the time of Optopatch measurements, the NGN2 excitatory neuron are homogeneous and electrophysiologically active, yielding highly stereotyped and reproducible data across cells, dishes, differentiation rounds and cell lines.
Optopatch measurements are carried out in a custom-built ultra-widefield fluorescence microscope, as described herein. Using this platform, intrinsic excitability properties are recorded for 11a and 20b NGN2 neuronal cultures at DIV25 in the presence of synaptic blockers NBQX, D-AP5 and Gabazine to block AMPA, NMDA and GABA currents, respectively. A custom blue light stimulus protocol of three 500 ms blue light steps of increasing intensity (1, 15 and 75 mW/cm^2) followed by two 2 second ramps of linearly increasing intensity (0.5-10 mW/cm^2 and 0.5-110 mW/cm^2) is used to elicit a range of activity from individual neurons. ˜50 to 100 neurons are simultaneously stimulated and recorded in a single field of view.
High signal-to-noise ratio (SNR) fluorescence-time traces are generated, and action potentials can be detected with high fidelity. Individual action potentials are detected for each of the hundreds of neurons and recorded with Optopatch and plotted on a spike raster plot, where each row represents a single neuron, and each dot represents a detected spike. While individual neurons show a diversity of spiking behavior throughout the stimulus protocol, the average firing rate of the population is remarkably similar for both cell lines.
The sensitivity of an excitability assay for detecting pharmacological modulation in NGN2 neurons using the well-characterized compound quinidine, which is reported to increase spike width and reduce spike activity is tested. […] These changes can be observed in the individual traces at 10 μM and 30 μM quinidine.
Additional quantification of both the response to quinidine and retigabine in is determined using an Optopatch excitability assay. Quinidine has been reported to block several voltage-, Na^+ and Ca^++ gated potassium channels (KNa1.1, KCa5.1, K2P16.1, Kv1.5, Kv1.7, Kv10.1, Kv10.2), including two-pore forming channels as well as voltage gated Na^+ channels.

[2] = target: Kv7.2 (Homo sapiens, UniProt O43526); conditions: read-out: Kv7.2 EC50; cited from earlier work
Chain of Kv7.2 (O43526 whole entry): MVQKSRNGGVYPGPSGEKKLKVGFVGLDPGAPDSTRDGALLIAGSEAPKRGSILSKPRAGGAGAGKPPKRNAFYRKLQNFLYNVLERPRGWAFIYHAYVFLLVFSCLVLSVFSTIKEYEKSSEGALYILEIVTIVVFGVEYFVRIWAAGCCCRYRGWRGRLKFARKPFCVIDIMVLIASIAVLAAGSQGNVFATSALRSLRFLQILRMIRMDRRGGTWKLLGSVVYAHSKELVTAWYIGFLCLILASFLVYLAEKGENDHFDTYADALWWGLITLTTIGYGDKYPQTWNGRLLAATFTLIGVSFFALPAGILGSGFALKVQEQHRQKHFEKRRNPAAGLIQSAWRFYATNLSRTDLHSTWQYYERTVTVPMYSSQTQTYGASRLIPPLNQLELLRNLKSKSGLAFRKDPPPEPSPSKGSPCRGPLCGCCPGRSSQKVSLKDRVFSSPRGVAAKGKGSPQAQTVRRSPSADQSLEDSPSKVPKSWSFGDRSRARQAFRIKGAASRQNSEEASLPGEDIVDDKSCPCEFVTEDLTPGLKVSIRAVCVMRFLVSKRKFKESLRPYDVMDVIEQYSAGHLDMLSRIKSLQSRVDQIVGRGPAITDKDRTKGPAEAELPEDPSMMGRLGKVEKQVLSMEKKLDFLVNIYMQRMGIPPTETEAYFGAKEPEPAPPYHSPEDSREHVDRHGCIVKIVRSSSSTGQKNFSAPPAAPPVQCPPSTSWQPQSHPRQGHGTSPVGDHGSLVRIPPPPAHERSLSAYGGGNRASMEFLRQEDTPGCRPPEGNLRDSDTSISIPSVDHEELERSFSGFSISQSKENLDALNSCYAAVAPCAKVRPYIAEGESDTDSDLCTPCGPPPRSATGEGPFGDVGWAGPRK

[3] = maximum concentration tested (30 μM)

Compound	changes to spike waveform and firing rate ([1]; acute addition, observed in individual traces at 10 μM and 30 μM)	broadening of the spikes ([1]; concentration dependent)	mean firing rate (spike rate) versus vehicle ([1]; different concentrations, with increased blue light stimulus)	spike rate ([1]; higher stimulation intensities (15 and 75 mW/cm^2))	magnitude of the AhP depth (measured from the baseline fluorescence before the action potential) [1, 3]	spike rise time (measured from start to peak of the action potential) [1, 3]	spike width (measured from the base of the action potential) [1, 3]	time to the maximum of the after hyperpolarization (AhP) depth [1, 3]	EC50 [2] [nM]
C=C[C@H]1C[N@@]2CC[C@H]1C[C@@H]2[C@@H](O)c1ccnc2ccc(OC)cc12 [quinidine]	dramatic changes to both the spike waveform and firing rate	concentration dependent broadening of the spikes	dramatic reduction in spike rate	concentration dependent reduction in the spike rate	decreases	increases	increases	increases	–
CCOC(=O)Nc1ccc(NCc2ccc(F)cc2)cc1N [retigabine]	–	–	–	–	–	–	–	–	2500
